Measured values published in patent US20030065066A1, “Triazine UV absorbers comprising amino resins” (priority 1998, published 2003).

Experiment: Solubility in xylenes
Type: physicochemical
Description: A major advantage of alkoxymethylated melamine triazine UV absorbers of the present invention is not only their improved solubility, but also their improved compatibility with coatings resins compared to the corresponding triazine precursors. For example 2,4-bis(2,4-dimethylphenyl)-6-[2-hydroxy-4-(2-hydroxyethoxy)phenyl]-1,3-5-triazine is only soluble in xylenes to the extent of about 0.5%. […] Therefore Compound A is much easier to dissolve in high solids coating resin formulations than 2,4-bis(2,4-dimethylphenyl)-6-[2-hydroxy-4-(2-hydroxyethoxy)phenyl]-1,3-5-triazine, and overcomes the problem of cratering and poor weatherability of the final coatings due to undissolved UV absorber particles.

xylenes solubility: about 0.5%
Substance: 2,4-bis(2,4-dimethylphenyl)-6-[2-hydroxy-4-(2-hydroxyethoxy)phenyl]-1,3-5-triazine [Compound a]
